Entries after “also recorded” stand apart in the source; their conditions may differ.
Tests used:
[1] = system: Karpas-422 (EZH2GOF) cells; assay: neutral comet assay of DSB repair; type: cell-based, human
Description: (A) Measurement of repair efficiency in SUDHL5 (EZH2^WT) and Karpas-422 (EZH2^GOF) cells using neutral comet assay that detects only double-strand breaks (DSBs). In the comet, the head (H) represents intact DNA and the tail (T) represents the number of DSBs in a single cell. Tail moment is a measure of length and intensity of DNA in the tail, and the average tail moments from 100 comets are indicated within the figure for each cell/treatment combination. Doxo indicates doxorubicin; H121N indicates HDAC1,2 inhibitor. (B) DNA damage in EZH2GOF cells following knockdown of HDAC1,2 using siRNA. NT indicates non-targeting control siRNA; HDAC1,2 siRNA indicates combined treatment with HDAC1 siRNA and HDAC2 siRNA. (C) Karpas-422 cells treated with DMSO solvent or HDAC1,2 inhibitor were subjected to microlaser irradiation. H3K27me3, γH2AX, Bmi-1, and serine2-phosphorylated RNA Polymerase II (engaged in transcriptional elongation) were monitored at laser break sites (arrows) after 15 minutes of recovery time. Numbers overlaying the images indicate percentages of cells with γH2AX lines that co-localized with H3K27me3, Bmi-1, or Pol2Ser2-P lines from at least four independent experiments (p value<0.01).
Indeed, EZH2, H3K27me3, and HDAC1,2 all localize to sites of DNA breaks, which links them to DNA repair. […]

[2] = system: glioma cell lines U-87 and U-251; assay: propidium iodide FACS cell cycle analysis; type: cell-based; conditions: 2 μM, 72 hours
Description: Cells were treated with ACY957 or DMSO for 72 hours, stained with propidium iodide, and assessed by FACS. The percentage of cells in Sub-G1, G1, S, and G2-M phases were quantified for each sample.
Glioma is a type of primary brain tumor that originates in the glial cells present in the brain or spinal cord. The glioma cell lines U-87 and U-251 were treated with either DMSO or 2 μM ACY957 for 72 hours and then subjected to propidium iodide staining and FACS analysis to evaluate cell cycle progression.

Karpas-422 cells [3] = assay: 53BP1 and γH2AX foci formation after doxorubicin; type: cell-based, human; conditions: 24 h pretreatment
Description: After 4 h or 8 h of doxorubicin treatment, cells were fixed and immunofluorescence staining was performed with anti-γH2AX and anti-53BP1 antibodies. Cells shown were representative images based on the quantitation. Merge was the overlay of γH2AX and 53BP1 pictures. (B) and (C): Graphs depicted the percentage of cells with 53BP1 foci present at γH2AX containing break sites and the percentages of cells with γH2AX foci.
Immunofluorescence. Cells were fixed in either 10% formalin or methanol-acetone (1:1) for 10 min at −20*C. The cells were then permeabilized with 0.5% Triton-X-100 in PBS for 5 min at room temperature (RT), blocked in 10% normal goat serum (Sigma) for 30 min and stained with primary antibody for 1 h at RT. Cells were incubated with secondary antibody (anti-mouse or anti-rabbit IgG, Alexa Fluor 488/546) at a 1:600 dilution for 45 min at RT, and counterstained with Hoechst 33342 (Sigma) at 1:1000 dilution to visualize the nuclei. Images were captured using Zeiss Axioskop mot plus microscope with a 40× lens and analyzed using the AxioVision software.
To test this possibility, we treated DLBCL cells with DMSO or ACY957 for 24 h prior to a low dose of doxorubicin (50 nM) treatment. We examined γH2AX and 53BP1 foci formation at 4 h or 8 h post-doxorubicin treatment using immunofluorescence.
The percentage of cells containing 0, 1-5, 6-10 and greater than 10 γH2AX and 53BP1 foci were determined in at least 100 cells from three independent experiments.

Karpas-422 cells [4] = assay: RNA-seq gene expression analysis; type: cell-based, human; conditions: 24 h
[5] = system: Hdac1,2 or Hdac3 knockout cell lines; assay: Western blot of H4K5ac in conditional Hdac1,2 or Hdac3 knockout cells; type: cell-based, mouse
Description: For IC50 determination, recombinant HDAC enzymes were treated with HDAC1,2 or HDAC3 inhibitors in in vitro HDAC assays. (B). Western blots for H3K23ac using extracts from Pre-B-ALL SupB15 cells treated with increasing dose of HDAC1,2 inhibitor (ACY1035). (C). Hdac1^FI/FI, 2^FI/FI cells were infected with Ad-Cre virus to delete HDAC1 and HDAC2 (HDAC1,2 null) or uninfected (WT). (D). Hdac3^FI/FI cells were either uninfected (WT) or infected with Ad-Cre virus to delete Hdac3.

[6] = system: Karpas-422 and SUDHL4 cells; assay: Western blot of histone acetylation marks in whole cell lysates; conditions: vs DMSO
Karpas-422 cells [7] = assay: propidium-iodide / BrdU-PI cell cycle analysis; type: cell-based, human
Description: (B): Quantitation of the cell cycle data in (A), compiled from three independent analyses. The graphs plotted the average percentage of cells in each phase of the cell cycle. […] (C): FACS analysis following BrdU-PI staining of Karpas-422 and SUDHL4 cells was performed following a 48 h or 72 h treatment with ACY-957.
Cell cycle analysis of propidium-iodide stained cells was performed with fixed cells. […] (C): FACS analysis following BrdU-PI staining of Karpas-422 and SUDHL4 cells was performed following a treatment with 2 μM ACY-957, 50 nM doxorubicin or both for 48 h.
(B): Quantitation of the cell cycle analysis performed in (A). Data from three independent cell cycle analyses were compiled and average percentage cells with standard errors were shown in this panel.
Propidium-iodide Cell Cycle Analysis.
Since these DLBCL cells expressed a hyperactive form of EZH2, pharmacological inhibition of EZH2 activity was considered a therapeutic strategy. […] GSK126 was a S-adenosyl-methionine-competitive inhibitor of EZH2 methyltransferase activity, and DZNep was a S-adenosylhomocysteine hydrolase inhibitor that disrupted the components of the PRC2 complex, thereby causing reduced chromatin-associated EZH2 levels.
To test this possibility, cell cycle analysis following treatment of Karpas-422 with ACY-957, doxorubicin, or ACY-957 in combination with doxorubicin was performed.

[8] = system: Karpas-422 and SUDHL4 cells; assay: Western blot of acid-extracted histones (H4K91ac, H4K16ac, monoubiquitinated H4); type: cell-based, human; conditions: for monoubiquitinated form of H4 after doxorubicin: 48 h pretreatment, then 50 nM doxorubicin 4 h or 8 h

Nc1ccc(-c2cccs2)cc1NC(=O)c1ccc2nc(N3CCNCC3)ccc2c1 [ACY-957, N-(2-amino-5-(thiophen-2-yl)phenyl)-2-(piperazin-1-yl)quinoline-6-carboxamide]
DSBs, comet tail moment [1]: increase in comet tail moment | effect on the cell cycle [2]: No effect on the cell cycle | 53BP1 foci co-localizing with γH2AX foci (Karpas-422 cells [3]; 4 h post-doxorubicin (50 nM)): decrease in the number of 53BP1 foci | percentage of cells with 53BP1 foci (Karpas-422 cells [3]; 8 h doxorubicin): increased to the level that was observed in the control DMSO-treated cells | percentage of cells with γH2AX foci (Karpas-422 cells [3]; 8 h doxorubicin): even higher percentage of cells with 6-10 and greater than 10 γH2AX foci | number of genes up regulated (Karpas-422 cells [4]; 2 μM, vs DMSO): 492 genes | BLIMP1 expression up regulation (Karpas-422 cells [4]; DESeq analysis of RNA-seq): 1.7 fold | H4K5ac in Hdac3-null cells [5]: additive increase in H4K5ac | H3K23ac levels ([6]; 2 μM, 24 hours): increased H3K23ac levels | H3K9,K14ac and H4K5ac levels ([6]; increasing amounts, 24 hr): concentration-dependent increase | cell death / sub-G1 population (Karpas-422 cells [7]; 2 μM ACY-957, 50 nM doxorubicin or both, 48 h): sub-G1 population (i.e., dead cells) was observed | progression through the cell cycle (Karpas-422 cells [7]; 24 h, 2 μM ACY-957, 0.5 μM DZNEP, 0.5 μM GSK126): did not affect their progression through the cell cycle | cell cycle / sub-G1 (dead cells) (Karpas-422 cells [7]; 48 h, 2 μM ACY-957, 0.5 μM DZNEP, 0.5 μM GSK126): modest accumulation of sub-G1 population | S-phase population, BrdU-PI FACS (Karpas-422 cells [7]; 48 h and 72 h, accompanied by increased cell death): decrease in S-phase population | cell cycle / sub-G1 (dead cells) (Karpas-422 cells [7]; 72 h, 2 μM ACY-957, 0.5 μM DZNEP, 0.5 μM GSK126): larger increase in the number of sub-G1/dead cells; also recorded: large increase in the number of sub-G1 or dead Karpas-422 cells | global H4K16ac levels ([8]; 2 μM, 48 hr): increased global levels of H4K16ac | global H4K91ac levels ([8]; 2 μM, 48 hr): increased global H4K91ac levels | global monoubiquitinated form of H4 ([8]; 30 h or 48 h, without doxorubicin): no change in global levels of the slow migrating monoubiquitinated form of H4 | monoubiquitinated form of H4 after doxorubicin [8]: significant reduction to complete absence of the slow migrating monoubiquitinated form of H4 | monoubiquitinated form of H4 after doxorubicin ([8]; listed as ACY957): decrease in the BBAP-mediated H4K91 monoubiquitination
